According to patent publication US20220132847A1, “CINNOLINIUM COMPOUNDS FOR USE IN A METHOD OF CONTROLLING UNWANTED PLANT GROWTH” (SYNGENTA CROP PROTECTION AG, priority 2019, published 2022):

How the values were obtained:
Assay in all cases: Post-emergence efficacy, glasshouse
Format in all cases: in vivo
[1] = tested on: Amaranthus palmeri (AMAPA); conditions: Application Rate 1000 g/Ha, evaluated after 13 days, 100=total damage to plant, 0=no damage to plant; for pest or weed control at 1000 g/ha: Amaranthus palmeri, post-emergence, 312 h, read-out: Control of weed species after post-emergence application, AMAPA
Outline: (§1)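 Compound, formulated in acetone and an emulsifier/solvent blend, was diluted to the required rate and sprayed post-emergence onto seedlings raised for 14 days under controlled glasshouse conditions. Injury was rated visually after 13 days on a 0 to 100 scale.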

[2] = tested on: Chenopodium album (CHEAL); conditions: Application Rate 1000 g/Ha, evaluated after 13 days, 100=total damage to plant, 0=no damage to plant; for pest or weed control at 1000 g/ha: Chenopodium album, post-emergence, 312 h, read-out: Control of weed species after post-emergence application, CHEAL
Outline: as §1

[3] = tested on: Digitaria sanguinalis (DIGSA); conditions: Application Rate 1000 g/Ha, evaluated after 13 days, 100=total damage to plant, 0=no damage to plant; for pest or weed control at 1000 g/ha: Digitaria sanguinalis, post-emergence, 312 h, read-out: Control of weed species after post-emergence application, DIGSA
Outline: as §1

[4] = tested on: Echinochloa crus-galli (ECHCG); conditions: Application Rate 1000 g/Ha, evaluated after 13 days, 100=total damage to plant, 0=no damage to plant; for pest or weed control at 1000 g/ha: Echinochloa crus-galli, post-emergence, 312 h, read-out: Control of weed species after post-emergence application, ECHCG
Outline: as §1

Eleusine indica (ELEIN) = conditions: Application Rate 1000 g/Ha, evaluated after 13 days, 100=total damage to plant, 0=no damage to plant; for pest or weed control at 1000 g/ha: Eleusine indica, post-emergence, 312 h, read-out: Control of weed species after post-emergence application, ELEIN
Outline: as §1

[5] = tested on: Euphorbia heterophylla (EPHHL); conditions: Application Rate 1000 g/Ha, evaluated after 13 days, 100=total damage to plant, 0=no damage to plant; for pest or weed control at 1000 g/ha: Euphorbia heterophylla, post-emergence, 312 h, read-out: Control of weed species after post-emergence application, EPHHL
Outline: as §1

[6] = tested on: Ipomoea hederacea (IPOHE); conditions: Application Rate 1000 g/Ha, evaluated after 13 days, 100=total damage to plant, 0=no damage to plant; for pest or weed control at 1000 g/ha: Ipomoea hederacea, post-emergence, 312 h, read-out: Control of weed species after post-emergence application, IPOHE
Outline: as §1

Lolium perenne (LOLPE) = conditions: Application Rate 1000 g/Ha, evaluated after 13 days, 100=total damage to plant, 0=no damage to plant; for pest or weed control at 1000 g/ha: Lolium perenne, post-emergence, 312 h, read-out: Control of weed species after post-emergence application, LOLPE
Outline: as §1

Setaria faberi (SETFA) = conditions: Application Rate 1000 g/Ha, evaluated after 13 days, 100=total damage to plant, 0=no damage to plant; for pest or weed control at 1000 g/ha: Setaria faberi, post-emergence, 312 h, read-out: Control of weed species after post-emergence application, SETFA
Outline: as §1

SMILES | pest or weed control at 1000 g/ha [1] [%] | pest or weed control at 1000 g/ha [2] [%] | pest or weed control at 1000 g/ha [3] [%] | pest or weed control at 1000 g/ha [4] [%] | pest or weed control at 1000 g/ha (Eleusine indica (ELEIN)) [%] | pest or weed control at 1000 g/ha [5] [%] | pest or weed control at 1000 g/ha [6] [%] | pest or weed control at 1000 g/ha (Lolium perenne (LOLPE)) [%] | pest or weed control at 1000 g/ha (Setaria faberi (SETFA)) [%] | Control of weed species after post-emergence application, AMAPA [1] | Control of weed species after post-emergence application, CHEAL [2] | Control of weed species after post-emergence application, DIGSA [3] | Control of weed species after post-emergence application, ECHCG [4] | Control of weed species after post-emergence application, ELEIN (Eleusine indica (ELEIN)) | Control of weed species after post-emergence application, EPHHL [5] | Control of weed species after post-emergence application, IPOHE [6] | Control of weed species after post-emergence application, LOLPE (Lolium perenne (LOLPE)) | Control of weed species after post-emergence application, SETFA (Setaria faberi (SETFA))
O=C(O)CC[n+]1cc(C(=O)[N-]S(=O)(=O)C2CC2)c2ccccc2n1 [Compound A20, [2-(2-carboxyethyl)cinnolin-2-ium-4-carbonyl]-cyclopropylsulfonyl-azanide] | 50 | 30 | 0 | 10 | 0 | 20 | 10 | 0 | 0 | – | – | – | – | – | – | – | – | –
O=C(O)C[n+]1cc(C(=O)[O-])c2ccccc2n1 [Compound A23, 2-(carboxymethyl)cinnolin-2-ium-4-carboxylate] | 50 | 50 | 70 | 30 | 40 | 20 | 20 | 10 | 30 | – | – | – | – | – | – | – | – | –
CC[n+]1cc(P(=O)([O-])OC)c2ccccc2n1 [Compound A65] | 90 | 90 | 90 | 50 | 80 | 100 | 70 | 40 | 80 | – | – | – | – | – | – | – | – | –
O=P([O-])(O)c1c[n+](CCO)nc2ccccc12 [Compound A67, hydroxy-[2-(2-hydroxyethyl)cinnolin-2-ium-4-yl]phosphinate] | 30 | 60 | 90 | 20 | 10 | 30 | 30 | 0 | 50 | – | – | – | – | – | – | – | – | –
CCOP(=O)(Cc1c[n+](C)nc2ccccc12)OCC.[I-] [Compound A47, 4-(diethoxyphosphorylmethyl)-2-methyl-cinnolin-2-ium iodide] | – | – | – | – | – | – | – | – | – | 60 | 70 | 40 | 30 | 50 | 30 | 20 | 10 | 40
CS(=O)(=O)[N-]C(=O)c1c[n+](CC(=O)NS(C)(=O)=O)nc2ccccc12 [Compound A13] | 0 | 0 | 10 | 10 | 10 | 10 | 10 | 10 | 10 | – | – | – | – | – | – | – | – | –
CC(C)S(=O)(=O)[N-]C(=O)c1c[n+](C)nc2ccccc12 [Compound A34] | 20 | 50 | 30 | 20 | 40 | 60 | 50 | 0 | 60 | – | – | – | – | – | – | – | – | –
C[n+]1cc(C(=O)Nc2nncs2)c2ccccc2n1 [Compound A26] | 20 | 40 | 0 | 20 | 20 | 20 | 30 | 10 | 10 | – | – | – | – | – | – | – | – | –
